Results as given in ChEMBL document CHEMBL4052645, “Discovery of potent and efficacious pyrrolopyridazines as dual JAK1/3 inhibitors” (Bioorg Med Chem Lett, 2017).
Each block holds one compound with its values, some of them ahead of it. Calls of active or inactive are those of the source. No cut-off for these calls is given here.

Experiments:
[1] = target: Tyrosine-protein kinase JAK1 (Homo sapiens, UniProt P23458); test: Inhibition of GST-tagged JAK1 (unknown origin) after 3 hrs by Caliper assay
Chain of Tyrosine-protein kinase JAK1 (P23458 whole entry): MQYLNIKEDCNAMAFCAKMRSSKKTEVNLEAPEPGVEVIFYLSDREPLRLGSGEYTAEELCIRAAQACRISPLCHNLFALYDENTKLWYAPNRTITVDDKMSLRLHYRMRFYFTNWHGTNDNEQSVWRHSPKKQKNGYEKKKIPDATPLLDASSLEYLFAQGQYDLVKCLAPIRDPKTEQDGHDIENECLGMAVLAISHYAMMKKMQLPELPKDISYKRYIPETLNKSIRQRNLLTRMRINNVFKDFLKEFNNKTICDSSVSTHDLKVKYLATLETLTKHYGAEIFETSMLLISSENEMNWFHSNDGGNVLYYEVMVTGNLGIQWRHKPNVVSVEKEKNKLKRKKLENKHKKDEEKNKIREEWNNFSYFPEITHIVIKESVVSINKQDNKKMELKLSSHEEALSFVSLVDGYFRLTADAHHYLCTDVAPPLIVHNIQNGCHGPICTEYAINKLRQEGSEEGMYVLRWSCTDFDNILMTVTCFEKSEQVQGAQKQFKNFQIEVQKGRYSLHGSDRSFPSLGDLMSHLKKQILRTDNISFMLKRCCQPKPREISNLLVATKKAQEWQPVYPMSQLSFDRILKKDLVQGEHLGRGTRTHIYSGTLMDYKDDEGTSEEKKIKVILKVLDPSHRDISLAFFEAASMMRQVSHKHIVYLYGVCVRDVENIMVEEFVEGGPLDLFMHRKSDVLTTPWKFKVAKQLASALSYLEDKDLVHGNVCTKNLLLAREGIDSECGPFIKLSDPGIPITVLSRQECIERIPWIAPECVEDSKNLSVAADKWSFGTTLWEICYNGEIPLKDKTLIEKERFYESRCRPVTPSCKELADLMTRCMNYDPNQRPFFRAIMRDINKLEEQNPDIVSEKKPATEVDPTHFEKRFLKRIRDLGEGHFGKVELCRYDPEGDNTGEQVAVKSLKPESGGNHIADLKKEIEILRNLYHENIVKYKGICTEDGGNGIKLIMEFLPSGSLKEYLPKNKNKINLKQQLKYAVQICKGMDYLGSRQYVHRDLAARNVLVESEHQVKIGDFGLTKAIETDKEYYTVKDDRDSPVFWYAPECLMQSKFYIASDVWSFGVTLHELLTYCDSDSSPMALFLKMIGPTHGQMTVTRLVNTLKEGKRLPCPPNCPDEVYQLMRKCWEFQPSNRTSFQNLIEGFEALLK

[2] = target: Non-receptor tyrosine-protein kinase TYK2 (Homo sapiens, UniProt P29597); test: Inhibition of His-tagged TYK2 (unknown origin) after 3 hrs by Caliper assay
Chain of Non-receptor tyrosine-protein kinase TYK2 (P29597 whole entry): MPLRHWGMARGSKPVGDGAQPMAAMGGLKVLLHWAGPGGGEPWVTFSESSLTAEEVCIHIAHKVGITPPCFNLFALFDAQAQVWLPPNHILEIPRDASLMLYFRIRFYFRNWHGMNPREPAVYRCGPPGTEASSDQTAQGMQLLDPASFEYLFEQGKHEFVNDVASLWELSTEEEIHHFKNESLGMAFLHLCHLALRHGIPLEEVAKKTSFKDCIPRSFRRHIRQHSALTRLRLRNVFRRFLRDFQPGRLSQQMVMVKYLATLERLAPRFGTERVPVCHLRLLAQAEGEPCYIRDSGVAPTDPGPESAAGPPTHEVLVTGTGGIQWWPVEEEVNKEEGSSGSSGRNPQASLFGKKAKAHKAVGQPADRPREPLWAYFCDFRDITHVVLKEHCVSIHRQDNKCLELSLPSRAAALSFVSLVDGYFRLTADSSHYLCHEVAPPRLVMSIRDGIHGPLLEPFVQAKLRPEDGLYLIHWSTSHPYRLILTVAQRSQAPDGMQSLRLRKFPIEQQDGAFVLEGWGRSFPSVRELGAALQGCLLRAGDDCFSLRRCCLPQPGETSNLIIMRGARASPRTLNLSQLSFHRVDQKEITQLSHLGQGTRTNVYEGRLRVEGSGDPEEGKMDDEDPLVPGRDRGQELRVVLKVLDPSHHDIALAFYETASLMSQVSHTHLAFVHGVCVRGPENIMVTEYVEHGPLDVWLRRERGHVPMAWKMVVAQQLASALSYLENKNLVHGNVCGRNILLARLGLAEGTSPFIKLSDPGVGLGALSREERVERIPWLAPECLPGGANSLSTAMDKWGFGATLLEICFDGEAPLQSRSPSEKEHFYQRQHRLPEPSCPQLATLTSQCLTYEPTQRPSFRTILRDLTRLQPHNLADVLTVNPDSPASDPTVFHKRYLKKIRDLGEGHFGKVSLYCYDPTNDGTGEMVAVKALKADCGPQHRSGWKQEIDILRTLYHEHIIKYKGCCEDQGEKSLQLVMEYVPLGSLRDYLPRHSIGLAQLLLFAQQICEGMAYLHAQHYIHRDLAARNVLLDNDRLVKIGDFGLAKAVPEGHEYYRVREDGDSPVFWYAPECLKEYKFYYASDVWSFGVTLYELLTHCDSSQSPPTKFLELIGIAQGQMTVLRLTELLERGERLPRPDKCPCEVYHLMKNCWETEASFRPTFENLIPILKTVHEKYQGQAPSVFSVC

[3] = target: T1, Tyrosine-protein kinase JAK3 (Homo sapiens, UniProt P52333); test: Inhibition of JAK3 (unknown origin) using CSKtide as substrate after 30 mins in presence of [gamma33P]ATP by liquid scintillation counting method
T1 sequence (P52333 whole entry): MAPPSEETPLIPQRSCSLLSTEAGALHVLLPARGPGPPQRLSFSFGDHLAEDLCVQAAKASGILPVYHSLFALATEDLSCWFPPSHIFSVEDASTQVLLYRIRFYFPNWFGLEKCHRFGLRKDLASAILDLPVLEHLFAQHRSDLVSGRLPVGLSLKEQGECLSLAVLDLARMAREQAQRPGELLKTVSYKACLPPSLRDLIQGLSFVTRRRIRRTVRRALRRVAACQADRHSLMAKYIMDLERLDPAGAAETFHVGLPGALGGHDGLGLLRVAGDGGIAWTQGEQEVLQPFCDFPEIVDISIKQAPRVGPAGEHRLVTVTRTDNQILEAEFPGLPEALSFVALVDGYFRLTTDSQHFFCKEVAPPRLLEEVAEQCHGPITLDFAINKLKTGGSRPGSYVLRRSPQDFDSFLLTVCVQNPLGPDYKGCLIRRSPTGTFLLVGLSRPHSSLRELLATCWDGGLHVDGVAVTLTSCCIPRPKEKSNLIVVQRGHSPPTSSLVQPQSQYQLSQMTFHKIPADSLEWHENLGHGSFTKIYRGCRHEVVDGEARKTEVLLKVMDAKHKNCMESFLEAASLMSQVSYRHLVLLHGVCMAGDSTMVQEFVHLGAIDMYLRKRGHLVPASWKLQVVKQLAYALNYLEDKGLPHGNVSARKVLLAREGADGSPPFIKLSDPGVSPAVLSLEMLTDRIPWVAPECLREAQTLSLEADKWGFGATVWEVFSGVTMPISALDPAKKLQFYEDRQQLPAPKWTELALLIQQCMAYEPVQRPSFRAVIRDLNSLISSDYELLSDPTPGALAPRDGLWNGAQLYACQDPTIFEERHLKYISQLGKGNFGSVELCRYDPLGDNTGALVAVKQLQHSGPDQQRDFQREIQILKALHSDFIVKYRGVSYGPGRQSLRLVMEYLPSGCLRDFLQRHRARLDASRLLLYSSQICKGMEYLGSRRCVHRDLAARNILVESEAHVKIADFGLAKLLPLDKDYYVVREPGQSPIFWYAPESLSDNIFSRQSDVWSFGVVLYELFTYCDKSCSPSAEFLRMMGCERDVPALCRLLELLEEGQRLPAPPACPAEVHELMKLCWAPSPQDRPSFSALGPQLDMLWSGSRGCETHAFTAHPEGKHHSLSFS

[4] = target: Tyrosine-protein kinase JAK2 (Homo sapiens, UniProt O60674); test: Inhibition of GST-tagged JAK2 (unknown origin) after 3 hrs by Caliper assay
Chain of Tyrosine-protein kinase JAK2 (O60674 whole entry): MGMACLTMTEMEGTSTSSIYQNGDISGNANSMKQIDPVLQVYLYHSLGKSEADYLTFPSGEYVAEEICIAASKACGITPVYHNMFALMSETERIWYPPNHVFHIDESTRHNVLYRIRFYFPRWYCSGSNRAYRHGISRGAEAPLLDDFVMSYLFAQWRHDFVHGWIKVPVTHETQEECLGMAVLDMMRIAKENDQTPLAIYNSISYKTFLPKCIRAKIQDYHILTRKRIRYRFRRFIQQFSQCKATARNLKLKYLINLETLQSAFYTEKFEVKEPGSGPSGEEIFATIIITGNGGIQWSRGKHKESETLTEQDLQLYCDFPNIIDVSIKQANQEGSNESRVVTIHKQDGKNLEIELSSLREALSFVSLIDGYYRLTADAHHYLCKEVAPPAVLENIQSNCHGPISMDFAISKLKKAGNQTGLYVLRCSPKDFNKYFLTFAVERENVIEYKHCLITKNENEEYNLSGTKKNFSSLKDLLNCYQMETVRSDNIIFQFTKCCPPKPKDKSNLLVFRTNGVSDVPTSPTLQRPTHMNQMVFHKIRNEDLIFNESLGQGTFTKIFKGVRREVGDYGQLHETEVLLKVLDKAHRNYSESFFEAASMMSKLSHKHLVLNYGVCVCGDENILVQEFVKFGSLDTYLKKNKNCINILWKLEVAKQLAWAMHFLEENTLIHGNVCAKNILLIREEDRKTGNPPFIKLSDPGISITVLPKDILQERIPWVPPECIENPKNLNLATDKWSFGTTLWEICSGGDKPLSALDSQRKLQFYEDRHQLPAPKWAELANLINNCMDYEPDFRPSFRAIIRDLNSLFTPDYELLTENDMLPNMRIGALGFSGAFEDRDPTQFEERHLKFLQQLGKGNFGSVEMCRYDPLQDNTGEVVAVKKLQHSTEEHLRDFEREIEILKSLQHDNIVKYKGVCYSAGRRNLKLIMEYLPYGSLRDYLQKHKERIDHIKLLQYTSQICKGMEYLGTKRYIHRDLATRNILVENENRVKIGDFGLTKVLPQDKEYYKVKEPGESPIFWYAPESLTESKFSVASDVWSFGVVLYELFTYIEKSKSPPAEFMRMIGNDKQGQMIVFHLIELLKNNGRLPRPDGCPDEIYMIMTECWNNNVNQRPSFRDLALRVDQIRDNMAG

[5] = Selectivity ratio of IC50 for JAK2 dependent EPO-induced STAT5A phosphorylation in human TF1 cells to IC50 for JAK1/JAK3 dependent IL2-induced STAT3 phosphorylation in human PBMC derived T-cells
JAK3/JAK1 = JAK3/JAK1 (Homo sapiens, UniProt P23458+P52333); test: Inhibition of JAK1/JAK3 in human whole blood assessed as reduction in IL-2 induced IFN-gamma production after 18 hrs by ELISA; assay type: protein-complex assay
Chain of JAK3/JAK1 (P23458 whole entry, one chain of several): as the sequence (P23458 whole entry) above

[6] = target: Voltage-gated inwardly rectifying potassium channel KCNH2 (Homo sapiens, UniProt Q12809); test: Inhibition of human ERG by flux-based assay
Chain of Voltage-gated inwardly rectifying potassium channel KCNH2 (Q12809 whole entry): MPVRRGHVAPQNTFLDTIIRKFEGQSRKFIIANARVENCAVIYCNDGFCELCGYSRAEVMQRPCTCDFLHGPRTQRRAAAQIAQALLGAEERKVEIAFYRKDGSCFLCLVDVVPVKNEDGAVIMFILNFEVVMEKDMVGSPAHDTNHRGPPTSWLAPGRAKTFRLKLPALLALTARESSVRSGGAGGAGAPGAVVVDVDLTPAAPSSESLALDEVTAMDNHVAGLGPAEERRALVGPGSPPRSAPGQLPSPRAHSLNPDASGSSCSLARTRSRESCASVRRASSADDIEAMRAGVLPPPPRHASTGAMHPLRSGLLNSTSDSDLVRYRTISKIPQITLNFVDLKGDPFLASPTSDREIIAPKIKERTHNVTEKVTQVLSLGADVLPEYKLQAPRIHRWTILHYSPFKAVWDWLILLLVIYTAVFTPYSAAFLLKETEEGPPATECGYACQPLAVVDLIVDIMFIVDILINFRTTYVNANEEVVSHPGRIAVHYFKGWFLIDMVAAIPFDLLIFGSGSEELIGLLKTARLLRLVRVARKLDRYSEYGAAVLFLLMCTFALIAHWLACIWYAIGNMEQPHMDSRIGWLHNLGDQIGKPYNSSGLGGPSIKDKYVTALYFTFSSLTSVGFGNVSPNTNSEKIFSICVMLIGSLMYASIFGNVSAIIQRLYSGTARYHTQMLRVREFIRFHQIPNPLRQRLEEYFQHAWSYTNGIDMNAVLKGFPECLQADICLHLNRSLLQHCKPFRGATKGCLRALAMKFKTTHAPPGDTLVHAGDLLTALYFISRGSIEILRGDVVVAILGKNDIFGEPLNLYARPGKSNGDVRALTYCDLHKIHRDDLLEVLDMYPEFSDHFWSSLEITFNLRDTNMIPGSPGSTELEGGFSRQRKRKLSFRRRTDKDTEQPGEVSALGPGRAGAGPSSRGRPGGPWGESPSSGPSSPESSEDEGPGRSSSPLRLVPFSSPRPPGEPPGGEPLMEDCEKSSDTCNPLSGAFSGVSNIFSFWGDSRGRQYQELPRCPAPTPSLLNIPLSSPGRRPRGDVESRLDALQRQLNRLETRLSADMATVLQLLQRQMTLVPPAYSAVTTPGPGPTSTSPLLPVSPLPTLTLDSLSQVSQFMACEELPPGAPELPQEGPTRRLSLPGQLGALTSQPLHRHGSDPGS

[7] = Permeability from apical side to basolateral side in human Caco2 cells; assay type: ADME, cell-based; conditions: Caco-2, read-out: permeability
[8] = Metabolic stability in mouse liver microsomes assessed as compound remaining after 10 mins; assay type: ADME, microsome; conditions: read-out: Stability
[9] = Cmax in mouse at 10 mg/kg, po after 8 hrs; assay type: ADME, organism-based; set-up: dose 10 mg/kg, route oral; conditions: in vivo
[10] = Cmin in mouse at 10 mg/kg, po after 8 hrs; assay type: ADME, organism-based; conditions: in vivo, read-out: Cmin
[11] = Oral bioavailability in rat; assay type: ADME, organism-based; conditions: in vivo
Rattus norvegicus = organism: Rattus norvegicus; test: Clearance of compound in rat relative to hepatic blood flow; assay type: ADME; conditions: in vivo
[12] = Clearance of compound in rat; assay type: ADME; conditions: in vivo
Serum = test: Protein binding in human serum; assay type: ADME, cell-free
Mus musculus [13] = test: Antiarthritic activity in collagen-induced arthritis mouse model assessed as reduction in inflammation at 20 mg/kg bid measure up to 41 days; assay type: functional, organism-based
Mus musculus [14] = test: Antiarthritic activity in collagen-induced mouse model assessed as […] at 20 mg/kg bid up to 41 days; assay type: functional, organism-based

IC50 [1]: 2.2 nM
IC50 [2]: 27 nM
IC50 [3]: 0.4 nM
IC50 [4]: 19 nM
IC50 (JAK3/JAK1): 100 nM
Papp A→B [7]: < 1.5 ×10⁻⁶ cm/s
remaining at 10 min [8]: 88%
Cmax [9]: 300 nM
concentration at 8 h [10]: 100 nM
SMILES: CC1(C)[C@H](Nc2c(C(N)=O)cnn3cc(-c4ccc(F)nc4)cc23)CC[C@]1(C)N
Ratio IC50 [5]: 13
IC50 [6]: 35 µM

bioavailability [11]: 24%
CL (Rattus norvegicus): > 100%
clearance [12]: 145 mL/min/kg
PB (Serum): 97%
SMILES: CC1(C)[C@H](Nc2c(C(N)=O)cnn3cccc23)CC[C@]1(C)N

SMILES: C[C@@H]1CCN(C(=O)CC#N)C[C@@H]1N(C)c1ncnc2[nH]ccc12
Activity (Mus musculus [13]): Active
Activity (Mus musculus [14]): Active
